Test results: patent US8536202B2, “Triazole-substituted anthranilamides as pesticides” (Bayer Cropscience AG, priority 2010, dated 2013)
Read-outs that look alike come from different tables or passages of the source.

Legend:
[1] = tested on: larvae of the mustard beetle (Phaedon cochleariae); assay: Phaedon test (PHAECO spray treatment); type: in vivo; conditions: 168 h, read-out: activity in %
Summary of the method: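 Compound dissolved in acetone/dimethylformamide with alkylaryl polyglycol ether emulsifier, then diluted with emulsifier-containing water to test concentration for spray treatment of Phaedon cochleariae larvae. Activity scored after 7 days as % larvae killed (100% = all dead, 0% = none).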

[2] = tested on: two-spotted spider mite (Tetranychus urticae); assay: Tetranychus test, OP-resistant (TETRUR spray treatment); type: in vivo; conditions: 100 g/ha, after 6 days
Description: (§1) Solvents: 78.0 parts by weight of acetone • • 1.5 parts by weight of dimethylformamide
(§2) Emulsifier: 0.5 part by weight of alkylaryl polyglycol ether
An appropriate preparation of active compound is prepared by mixing 1 part by weight of active compound with the stated amounts of solvent and emulsifier and diluting the concentrate with emulsifier-containing water to the desired concentration. Leaf discs of French bean (Phaseolus vulgaris) infested by all stages of the two-spotted spider mite (Tetranychus urticae) are sprayed with a preparation of active compound at the desired concentration.
After 6 days, the activity in % is ascertained. Here, 100% means that all of the spider mites have been killed; 0% means that no spider mites have been killed.

[3] = log P determination by HPLC on reversed-phase columns (EEC Directive 79/831 Annex V.A8); type: physicochemical; conditions: pH 2.7
Summary of the method: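 log P from reversed-phase LC-MS retention at pH 2.7, 0.1% formic acid water/acetonitrile gradient 10–95% acetonitrile. Calibrated against C3–C16 unbranched alkan-2-ones, interpolating linearly between adjacent alkanones.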

Boophilus microplus = Boophilus microplus test (BOOPMI injection); type: in vivo; conditions: Rhipicephalus microplus, 168 h, 20 μg/animal, after 7 days, read-out: activity in % (no fertile eggs laid)
Description: (§3) Solvent: dimethyl sulphoxide
An appropriate preparation of active compound is prepared by mixing 10 mg of active compound with 0.5 ml of solvent and diluting the concentrate with solvent to the desired concentration. The solution of active compound is injected into the abdomen (Boophilus microplus), and the animals are transferred to dishes and kept in a climatized room. Activity is assessed by deposition of fertile eggs.
After 7 days, the activity in % is assessed. Here, 100% means that none of the ticks has laid fertile eggs.

Lucilia cuprina larvae = assay: Lucilia cuprina test (LUCICU); type: in vivo; conditions: 48 h, read-out: kill in %
Description: as §3
(§4) An appropriate preparation of active compound is prepared by mixing 10 mg of active compound with 0.5 ml of dimethyl sulphoxide and diluting the concentrate with water to the desired concentration.
Vessels containing horse meat treated with the preparation of active compound at the desired concentration are populated with approximately 20 Lucilia cuprina larvae.
After 2 days, the kill in % is ascertained. Here, 100% means that all of the larvae have been killed; 0% means that no larvae have been killed.

adult Musca domestica = assay: Musca domestica test (MUSCDO); type: in vivo; conditions: 48 h, read-out: kill in %
Description: as §3
as §4, with “concentration. Vessels containing a sponge treated with the preparation of active compound at the desired concentration are populated with adult Musca domestica.” for “concentration.”
After 2 days, the kill in % is ascertained. Here, 100% means that all of the flies have been killed; 0% means that no flies have been killed.

[4] = tested on: green peach aphid (Myzus persicae); assay: Myzus test (MYZUPE spray treatment), Use Example 4; type: in vivo; conditions: 144 h, read-out: activity in %
Summary of the method: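 Compound was formulated in acetone/dimethylformamide with alkylaryl polyglycol ether emulsifier and diluted in emulsifier-containing water. It was sprayed onto Chinese cabbage leaf discs infested with all stages of Myzus persicae. Mortality (%) was scored after 6 days, where 100% means all aphids killed.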

[5] = tested on: caterpillars of the armyworm (Spodoptera frugiperda); assay: Spodoptera frugiperda test (SPODFR spray treatment); type: in vivo; conditions: 168 h, read-out: activity in %
Summary of the method: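 Maize leaf discs sprayed with compound diluted in emulsifier-containing water (acetone/DMF solvent, alkylaryl polyglycol ether emulsifier), dried, then infested with armyworm caterpillars. Kill scored after 7 days as % mortality, 100% = all caterpillars dead, 0% = none.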

[6] = tested on: green peach aphid (Myzus persicae); assay: Myzus test (MYZUPE spray treatment), Use Example 8, comparison with prior art; type: in vivo; conditions: 100 g/ha, 6 d
Description: as §1, §2
An appropriate preparation of active compound is prepared by mixing 1 part by weight of active compound with the stated amounts of solvents and emulsifier and diluting the concentrate with emulsifier-containing water to the desired concentration.
Leaf discs of Chinese cabbage (Brassica pekinensis) infested by all stages of the green peach aphid (Myzus persicae) are sprayed with a preparation of active compound at the desired concentration. After the desired time, the activity in % is ascertained. Here, 100% means that all of the aphids have been killed; 0% means that no aphids have been killed.

[7] = HPLC on reversed-phase columns (C 18), EEC Directive 79/831 Annex V.A8, read-out: logP

CNC(=O)c1cc(C#N)cc(C)c1NC(=O)c1cc(Cn2ncc(C(C)(C)C)n2)nn1-c1ncccc1Cl [Example 39]
pest or weed control at 100 g/ha ([1]; 100 g/ha, after 7 days): 83% | activity in % [2]: 90% | chromatographic logP [3]: 2.89

Cc1cc(Cl)cc(C(N)=O)c1NC(=O)c1cc(Cn2ncc(C(F)(F)F)n2)nn1-c1ncccc1Cl [Example 134]
pest or weed control at 0.02 mg (Boophilus microplus): 100% | pest or weed control at 100 ppm (Lucilia cuprina larvae): 100% | pest or weed control at 100 ppm (adult Musca domestica): 100% | pest or weed control at 100 g/ha ([4]; 100 g/ha, after 6 days): 100% | pest or weed control at 100 g/ha ([1]; 100 g/ha, after 7 days): 100% | pest or weed control at 100 g/ha ([5]; 100 g/ha, after 7 days): 100% | chromatographic logP [3]: 2.7

Cc1cc(I)cc(C(=O)NC2CC2)c1NC(=O)c1cc(Cn2ncc(C(F)(F)C(F)(F)C(F)(F)F)n2)nn1-c1ncccc1Cl [Example 375]
pest or weed control at 100 g/ha [1]: 100% | pest or weed control at 100 g/ha [5]: 100% | activity in % [2]: 90% | chromatographic logP [3, 7]: 4.23

Cc1cc(C#N)cc(C(=O)NC(C)(C)C)c1NC(=O)c1cc(Cn2cc(C3CC3)nn2)nn1-c1ncccc1Cl [Example 50]
pest or weed control at 100 g/ha ([4]; 100 g/ha, after 6 days): 90% | pest or weed control at 100 g/ha ([1]; 100 g/ha, after 7 days): 100% | pest or weed control at 100 g/ha ([5]; 100 g/ha, after 7 days): 83% | activity in % [2]: 80% | chromatographic logP [3]: 2.57

Cc1cc(Cl)cc(C(N)=O)c1NC(=O)c1cc(Cn2nnc(C(F)(F)C(F)(F)F)n2)nn1-c1ncccc1Cl [reference compound]
% Activity [6]: 80 6 d %

Cc1cc(I)cc(C(N)=O)c1NC(=O)c1cc(Cn2cc(C(F)(C(F)(F)F)C(F)(F)F)nn2)nn1-c1ncccc1Cl [Example 239]
pest or weed control at 0.02 mg (Boophilus microplus): 100% | pest or weed control at 100 ppm (Lucilia cuprina larvae): 100% | pest or weed control at 100 ppm (adult Musca domestica): 100% | pest or weed control at 100 g/ha ([4]; 100 g/ha, after 6 days): 100% | pest or weed control at 100 g/ha ([1]; 100 g/ha, after 7 days): 100% | pest or weed control at 100 g/ha ([5]; 100 g/ha, after 7 days): 100% | chromatographic logP [3]: 3.35

Cc1cc(C#N)cc(C(=O)NC(C)(C)C)c1NC(=O)c1cc(Cn2ncc(C(F)(F)F)n2)nn1-c1ncccc1Cl [Example 129]
pest or weed control at 0.02 mg (Boophilus microplus): 100% | pest or weed control at 100 ppm (Lucilia cuprina larvae): 100% | pest or weed control at 100 ppm (adult Musca domestica): 80% | pest or weed control at 100 g/ha ([4]; 100 g/ha, after 6 days): 100% | pest or weed control at 100 g/ha ([1]; 100 g/ha, after 7 days): 100% | pest or weed control at 100 g/ha ([5]; 100 g/ha, after 7 days): 100% | chromatographic logP [3]: 3.46

Cc1cc(Cl)cc(C(=O)NC2CC2)c1NC(=O)c1cc(Cn2cc(C(F)(C(F)(F)F)C(F)(F)F)nn2)nn1-c1ncccc1Cl [Example 232]
pest or weed control at 0.02 mg (Boophilus microplus): 100% | pest or weed control at 100 ppm (Lucilia cuprina larvae): 100% | pest or weed control at 100 ppm (adult Musca domestica): 100% | pest or weed control at 100 g/ha ([4]; 100 g/ha, after 6 days): 80% | pest or weed control at 100 g/ha ([1]; 100 g/ha, after 7 days): 100% | pest or weed control at 100 g/ha ([5]; 100 g/ha, after 7 days): 100% | chromatographic logP [3]: 3.61

Cc1cc(Cl)cc(C(N)=O)c1NC(=O)c1cc(Cn2cc(C(F)(F)C(F)(F)F)nn2)nn1-c1ncccc1Cl [drawing 449]
% Activity [6]: 100 6 d %

Cc1cc(C#N)cc(C(=O)NC2(C3CC3)CC2)c1NC(=O)c1cc(Cn2ncc(C(F)(F)F)n2)nn1-c1ncccc1Cl [Example 281]
pest or weed control at 0.02 mg (Boophilus microplus): 100% | pest or weed control at 100 ppm (Lucilia cuprina larvae): 100% | pest or weed control at 100 ppm (adult Musca domestica): 100% | pest or weed control at 100 g/ha ([4]; 100 g/ha, after 6 days): 100% | pest or weed control at 100 g/ha ([1]; 100 g/ha, after 7 days): 100% | pest or weed control at 100 g/ha ([5]; 100 g/ha, after 7 days): 100% | chromatographic logP [3]: 3.37

Cc1cc(C#N)cc(C(=O)NC(C)C)c1NC(=O)c1cc(Cn2ncc(C(F)(F)F)n2)nn1-c1ncccc1Cl [Example 128]
pest or weed control at 0.02 mg (Boophilus microplus): 100% | pest or weed control at 100 ppm (Lucilia cuprina larvae): 100% | pest or weed control at 100 ppm (adult Musca domestica): 80% | pest or weed control at 100 g/ha ([4]; 100 g/ha, after 6 days): 100% | pest or weed control at 100 g/ha ([1]; 100 g/ha, after 7 days): 100% | pest or weed control at 100 g/ha ([5]; 100 g/ha, after 7 days): 100% | chromatographic logP [3]: 3.1

Cc1cc(Cl)cc(C(N)=O)c1NC(=O)c1cc(Cn2cc(C(F)(C(F)(F)F)C(F)(F)F)nn2)nn1-c1ncccc1Cl [Example 231]
pest or weed control at 0.02 mg (Boophilus microplus): 100% | pest or weed control at 100 ppm (Lucilia cuprina larvae): 100% | pest or weed control at 100 ppm (adult Musca domestica): 80% | pest or weed control at 100 g/ha ([4]; 100 g/ha, after 6 days): 100% | pest or weed control at 100 g/ha ([1]; 100 g/ha, after 7 days): 100% | pest or weed control at 100 g/ha ([5]; 100 g/ha, after 7 days): 100% | chromatographic logP [3]: 3.16

Cc1cc(Cl)cc(C(=O)NC2(C3CC3)CC2)c1NC(=O)c1cc(Cn2ncc(C(F)(F)F)n2)nn1-c1ncccc1Cl [Example 282]
pest or weed control at 0.02 mg (Boophilus microplus): 100% | pest or weed control at 100 ppm (Lucilia cuprina larvae): 100% | pest or weed control at 100 ppm (adult Musca domestica): 80% | pest or weed control at 100 g/ha ([4]; 100 g/ha, after 6 days): 80% | pest or weed control at 100 g/ha ([1]; 100 g/ha, after 7 days): 100% | pest or weed control at 100 g/ha ([5]; 100 g/ha, after 7 days): 100% | chromatographic logP [3]: 3.78

CNC(=O)c1cc(Cl)cc(Cl)c1NC(=O)c1cc(Cn2cc(C(F)(C(F)(F)F)C(F)(F)F)nn2)nn1-c1ncccc1Cl [Example 241]
pest or weed control at 0.02 mg (Boophilus microplus): 100% | pest or weed control at 100 ppm (Lucilia cuprina larvae): 100% | pest or weed control at 100 ppm (adult Musca domestica): 80% | pest or weed control at 100 g/ha ([4]; 100 g/ha, after 6 days): 100% | pest or weed control at 100 g/ha ([1]; 100 g/ha, after 7 days): 100% | pest or weed control at 100 g/ha ([5]; 100 g/ha, after 7 days): 100% | chromatographic logP [3]: 3.31

CSC[C@H](C)NC(=O)c1cc(I)cc(C)c1NC(=O)c1cc(Cn2cc(C(F)(F)C(F)(F)C(F)(F)F)nn2)nn1-c1ncccc1Cl [Example 321]
pest or weed control at 100 g/ha [4]: 100% | pest or weed control at 100 g/ha [1]: 100% | pest or weed control at 100 g/ha [5]: 100% | activity in % [2]: 90% | chromatographic logP [3, 7]: 4.27
